“And” between values parts separate entries of the source, which are not always exact repeats. Equal values may be shown once.
Columns and labels:
Test in all cases: radiometric filter-binding kinase assay, Kinase HotSpot
Settings in all cases: compound 0.5 µM; ATP 10 µM
[1] = biological target: AKT2 (human) (UniProt P31751)
[2] = biological target: AXL (human) (UniProt P30530)
[3] = biological target: CAMKK1 (human) (UniProt Q8N5S9)
[4] = biological target: CDK3 CCNE1 (human) (UniProt Q00526+P24864)
[5] = biological target: CDK6 CCND1 (human) (UniProt Q00534+P24385)
[6] = biological target: CLK2 (human) (UniProt P49760)
[7] = biological target: CSNK1A1 (human) (UniProt P48729)
[8] = biological target: CSNK2A2 (human) (UniProt P19784)
[9] = biological target: EPHA4 (human) (UniProt P54764)
[10] = biological target: ERBB4 (human) (UniProt Q15303)
[11] = biological target: HIPK4 (human) (UniProt Q8NE63)
[12] = biological target: IKBKE (human) (UniProt Q14164)
[13] = biological target: KIT (human) (UniProt P10721)
[14] = biological target: LRRK2 (human) (UniProt Q5S007)
[15] = biological target: MAP3K10 (human) (UniProt Q02779)
[16] = biological target: MAP3K9 (human) (UniProt P80192)
[17] = biological target: MAPK11 (human) (UniProt Q15759)
[18] = biological target: MAPK3 (human) (UniProt P27361)
[19] = biological target: MAPKAPK2 (human) (UniProt P49137)
[20] = biological target: MELK (human) (UniProt Q14680)
[21] = biological target: MST1R (human) (UniProt Q04912)
[22] = biological target: NUAK1 (human) (UniProt O60285)
[23] = biological target: NUAK2 (human) (UniProt Q9H093)
[24] = biological target: PAK4 (human) (UniProt O96013)
[25] = biological target: PAK6 (human) (UniProt Q9NQU5)
[26] = biological target: PIM1 (human) (UniProt P11309)
[27] = biological target: PRKACG (human) (UniProt P22612)
[28] = biological target: PRKD2 (human) (UniProt Q9BZL6)
[29] = biological target: PRKG1 (human) (UniProt Q13976)
[30] = biological target: RPS6KA3 KD1 KD2 (human) (UniProt P51812)
[31] = biological target: SGK2 (human) (UniProt Q9HBY8)
[32] = biological target: SRPK2 (human) (UniProt P78362)
[33] = biological target: STK10 (human) (UniProt O94804)
[34] = biological target: STK25 (human) (UniProt O00506)
[35] = biological target: STK39 (human) (UniProt Q9UEW8)
[36] = biological target: TAOK3 (human) (UniProt Q9H2K8)
[37] = biological target: TEK (human) (UniProt Q02763)
[38] = biological target: TSSK2 (human) (UniProt Q96PF2)
[39] = biological target: WNK3 (human) (UniProt Q9BYP7)
[40] = biological target: AURKB (human) (UniProt Q96GD4)

PRKG1 (human), sequence (Q13976 whole entry, looked up): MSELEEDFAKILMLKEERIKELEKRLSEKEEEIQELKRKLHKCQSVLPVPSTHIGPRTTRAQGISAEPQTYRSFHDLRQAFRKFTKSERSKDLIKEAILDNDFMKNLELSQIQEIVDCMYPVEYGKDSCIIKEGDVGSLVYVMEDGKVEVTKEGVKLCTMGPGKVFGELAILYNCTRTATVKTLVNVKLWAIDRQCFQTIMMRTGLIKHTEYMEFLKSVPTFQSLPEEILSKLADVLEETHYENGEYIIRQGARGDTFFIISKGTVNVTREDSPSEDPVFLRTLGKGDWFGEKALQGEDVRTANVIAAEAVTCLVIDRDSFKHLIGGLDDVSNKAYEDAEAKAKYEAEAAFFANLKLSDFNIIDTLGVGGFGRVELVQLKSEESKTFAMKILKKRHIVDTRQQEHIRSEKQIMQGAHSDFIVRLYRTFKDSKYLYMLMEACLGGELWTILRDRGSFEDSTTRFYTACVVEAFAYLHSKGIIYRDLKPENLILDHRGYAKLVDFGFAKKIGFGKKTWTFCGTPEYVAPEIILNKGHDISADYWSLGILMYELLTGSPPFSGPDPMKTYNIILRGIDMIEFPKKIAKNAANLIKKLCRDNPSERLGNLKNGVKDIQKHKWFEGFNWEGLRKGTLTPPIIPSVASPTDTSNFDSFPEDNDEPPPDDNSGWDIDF
PIM1 (human), sequence (P11309 whole entry, looked up): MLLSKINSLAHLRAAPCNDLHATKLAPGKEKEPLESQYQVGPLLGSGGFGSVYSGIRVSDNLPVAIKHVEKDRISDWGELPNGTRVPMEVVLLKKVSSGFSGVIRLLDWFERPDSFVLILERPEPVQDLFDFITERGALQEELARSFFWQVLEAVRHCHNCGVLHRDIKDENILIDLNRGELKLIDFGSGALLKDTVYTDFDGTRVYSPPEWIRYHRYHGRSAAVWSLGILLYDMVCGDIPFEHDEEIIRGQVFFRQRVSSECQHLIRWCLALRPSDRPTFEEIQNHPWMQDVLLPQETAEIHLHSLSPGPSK
PRKD2 (human), sequence (Q9BZL6 whole entry, looked up): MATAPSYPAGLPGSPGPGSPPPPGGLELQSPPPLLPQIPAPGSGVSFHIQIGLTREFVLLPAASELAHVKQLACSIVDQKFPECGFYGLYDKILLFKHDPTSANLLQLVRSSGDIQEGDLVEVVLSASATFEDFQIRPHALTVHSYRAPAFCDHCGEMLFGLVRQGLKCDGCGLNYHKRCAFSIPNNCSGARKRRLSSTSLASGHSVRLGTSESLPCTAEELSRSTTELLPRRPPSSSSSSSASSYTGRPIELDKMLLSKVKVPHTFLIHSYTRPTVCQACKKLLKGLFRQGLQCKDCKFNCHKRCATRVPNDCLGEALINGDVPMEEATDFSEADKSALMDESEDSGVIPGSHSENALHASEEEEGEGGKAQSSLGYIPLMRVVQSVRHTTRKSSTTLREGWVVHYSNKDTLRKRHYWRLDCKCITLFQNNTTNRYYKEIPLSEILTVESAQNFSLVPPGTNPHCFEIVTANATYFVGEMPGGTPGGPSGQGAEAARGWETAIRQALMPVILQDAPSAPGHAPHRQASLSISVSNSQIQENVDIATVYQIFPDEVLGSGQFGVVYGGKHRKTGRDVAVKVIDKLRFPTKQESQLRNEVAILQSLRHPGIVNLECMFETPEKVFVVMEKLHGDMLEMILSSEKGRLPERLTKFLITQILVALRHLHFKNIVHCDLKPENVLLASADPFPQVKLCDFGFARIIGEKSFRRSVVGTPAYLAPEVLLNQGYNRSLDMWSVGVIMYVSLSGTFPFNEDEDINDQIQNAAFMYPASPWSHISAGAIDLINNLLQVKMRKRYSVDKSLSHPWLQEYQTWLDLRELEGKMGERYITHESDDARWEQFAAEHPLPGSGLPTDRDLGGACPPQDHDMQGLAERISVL
IKBKE (human), sequence (Q14164 whole entry, looked up): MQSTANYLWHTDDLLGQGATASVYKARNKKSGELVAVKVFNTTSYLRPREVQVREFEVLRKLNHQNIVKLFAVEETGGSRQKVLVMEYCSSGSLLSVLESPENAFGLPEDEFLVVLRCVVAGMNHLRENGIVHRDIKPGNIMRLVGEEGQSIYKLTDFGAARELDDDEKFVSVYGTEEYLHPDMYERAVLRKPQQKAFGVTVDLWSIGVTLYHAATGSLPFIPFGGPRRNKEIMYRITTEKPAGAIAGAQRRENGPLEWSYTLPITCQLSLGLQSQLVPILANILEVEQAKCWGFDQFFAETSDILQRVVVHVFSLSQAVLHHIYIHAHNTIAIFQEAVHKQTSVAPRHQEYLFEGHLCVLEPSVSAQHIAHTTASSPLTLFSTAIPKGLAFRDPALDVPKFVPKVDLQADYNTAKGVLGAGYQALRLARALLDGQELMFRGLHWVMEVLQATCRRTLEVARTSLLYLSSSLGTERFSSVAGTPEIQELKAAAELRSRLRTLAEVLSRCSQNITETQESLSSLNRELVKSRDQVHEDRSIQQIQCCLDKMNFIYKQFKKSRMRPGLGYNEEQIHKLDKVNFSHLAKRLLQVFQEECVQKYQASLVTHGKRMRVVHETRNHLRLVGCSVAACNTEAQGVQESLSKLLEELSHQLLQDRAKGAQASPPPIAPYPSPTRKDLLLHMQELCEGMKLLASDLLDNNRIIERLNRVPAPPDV
PAK6 (human), sequence (Q9NQU5 whole entry, looked up): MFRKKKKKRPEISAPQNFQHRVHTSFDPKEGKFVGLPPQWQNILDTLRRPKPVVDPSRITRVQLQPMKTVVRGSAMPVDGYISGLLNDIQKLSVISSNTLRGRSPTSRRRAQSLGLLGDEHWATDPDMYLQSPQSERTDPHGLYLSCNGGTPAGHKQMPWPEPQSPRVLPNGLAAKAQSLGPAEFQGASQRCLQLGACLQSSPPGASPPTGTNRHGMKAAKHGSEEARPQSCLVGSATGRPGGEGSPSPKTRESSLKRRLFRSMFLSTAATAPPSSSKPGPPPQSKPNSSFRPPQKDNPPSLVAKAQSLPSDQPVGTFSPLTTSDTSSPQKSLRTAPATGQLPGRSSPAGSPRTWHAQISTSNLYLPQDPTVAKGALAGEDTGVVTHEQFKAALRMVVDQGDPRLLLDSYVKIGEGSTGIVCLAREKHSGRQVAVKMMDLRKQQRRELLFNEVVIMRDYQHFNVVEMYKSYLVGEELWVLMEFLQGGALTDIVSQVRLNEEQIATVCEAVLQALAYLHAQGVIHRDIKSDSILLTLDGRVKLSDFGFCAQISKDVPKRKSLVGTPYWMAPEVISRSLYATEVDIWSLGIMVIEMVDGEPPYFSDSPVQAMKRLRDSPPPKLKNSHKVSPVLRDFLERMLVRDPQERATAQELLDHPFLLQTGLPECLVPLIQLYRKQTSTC
CDK6 CCND1 (human), sequence (P24385 whole entry, looked up): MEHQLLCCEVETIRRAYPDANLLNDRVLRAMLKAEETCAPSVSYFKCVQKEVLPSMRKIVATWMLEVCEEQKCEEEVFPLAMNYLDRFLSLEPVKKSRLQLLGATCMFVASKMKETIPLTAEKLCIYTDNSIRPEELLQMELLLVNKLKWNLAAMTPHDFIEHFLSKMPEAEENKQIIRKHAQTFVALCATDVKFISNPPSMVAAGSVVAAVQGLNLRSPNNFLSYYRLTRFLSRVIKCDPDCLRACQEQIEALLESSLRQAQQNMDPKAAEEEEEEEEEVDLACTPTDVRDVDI
CDK6 CCND1 (human), sequence (Q00534 whole entry, looked up): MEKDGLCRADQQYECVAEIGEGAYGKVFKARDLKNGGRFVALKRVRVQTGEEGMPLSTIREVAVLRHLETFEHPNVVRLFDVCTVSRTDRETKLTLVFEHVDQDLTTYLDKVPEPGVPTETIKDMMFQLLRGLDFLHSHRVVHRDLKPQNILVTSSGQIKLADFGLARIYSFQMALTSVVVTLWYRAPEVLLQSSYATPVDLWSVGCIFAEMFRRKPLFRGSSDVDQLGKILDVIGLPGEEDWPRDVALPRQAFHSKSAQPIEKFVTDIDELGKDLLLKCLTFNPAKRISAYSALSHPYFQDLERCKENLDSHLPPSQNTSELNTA
HIPK4 (human), sequence (Q8NE63 whole entry, looked up): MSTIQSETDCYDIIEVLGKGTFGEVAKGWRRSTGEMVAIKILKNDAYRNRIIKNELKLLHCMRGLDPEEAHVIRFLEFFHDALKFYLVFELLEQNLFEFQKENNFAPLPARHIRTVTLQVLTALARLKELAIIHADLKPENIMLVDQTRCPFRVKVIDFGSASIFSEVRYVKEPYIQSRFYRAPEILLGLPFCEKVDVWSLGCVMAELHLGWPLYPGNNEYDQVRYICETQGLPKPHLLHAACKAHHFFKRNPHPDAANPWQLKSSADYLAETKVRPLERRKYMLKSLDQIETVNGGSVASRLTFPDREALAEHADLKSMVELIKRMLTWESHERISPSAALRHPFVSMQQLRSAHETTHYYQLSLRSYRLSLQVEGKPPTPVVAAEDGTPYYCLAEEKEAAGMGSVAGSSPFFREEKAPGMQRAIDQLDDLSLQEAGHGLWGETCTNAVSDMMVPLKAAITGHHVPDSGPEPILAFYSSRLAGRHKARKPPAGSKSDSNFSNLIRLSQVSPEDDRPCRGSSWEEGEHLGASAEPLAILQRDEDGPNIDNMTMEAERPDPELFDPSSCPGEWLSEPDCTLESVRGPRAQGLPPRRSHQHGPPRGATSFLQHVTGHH
MAPK3 (human), sequence (P27361 whole entry, looked up): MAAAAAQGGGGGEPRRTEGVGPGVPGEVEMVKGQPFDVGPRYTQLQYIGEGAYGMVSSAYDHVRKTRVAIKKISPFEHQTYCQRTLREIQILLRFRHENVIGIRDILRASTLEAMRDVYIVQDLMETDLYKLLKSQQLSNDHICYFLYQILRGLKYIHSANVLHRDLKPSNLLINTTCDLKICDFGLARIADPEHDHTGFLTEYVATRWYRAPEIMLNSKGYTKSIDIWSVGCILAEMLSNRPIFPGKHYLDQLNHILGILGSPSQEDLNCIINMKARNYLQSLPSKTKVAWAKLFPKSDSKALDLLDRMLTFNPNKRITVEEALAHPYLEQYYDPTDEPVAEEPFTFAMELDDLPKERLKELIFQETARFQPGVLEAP

SMILES | residual activity [1] [%] | residual activity [2] [%] | residual activity [3] [%] | residual activity [4] [%] | residual activity [5] [%] | residual activity [6] [%] | residual activity [7] [%] | residual activity [9] [%] | residual activity [10] [%] | residual activity [11] [%] | residual activity [12] [%] | residual activity [13] [%] | residual activity [14] [%] | residual activity [15] [%] | residual activity [16] [%] | residual activity [17] [%] | residual activity [18] [%] | residual activity [19] [%] | residual activity [20] [%] | residual activity [21] [%] | also measured
CNC(=O)c1cc(Oc2ccc(NC(=O)Nc3ccc(Cl)c(C(F)(F)F)c3)cc2)ccn1 | 103 | 105 | 103 | 96.5 | 91.8 | 92.8 | 97.8 | 92.5 | 94.8 | 4.85 | 89.8 | 53.3 | 106 | 104 | 103 | 46.9 | 105 | 100 | 93.6 | 97.6 | residual activity [8]: 94.4%; residual activity [22]: 103%; residual activity [23]: 101%; residual activity [24]: 91.8%; residual activity [25]: 104%; residual activity [26]: 97.1%; residual activity [27]: 100%; residual activity [28]: 96.2%; residual activity [29]: 104% and 88.6%; residual activity [30]: 100%; residual activity [31]: 103%; residual activity [32]: 102%; residual activity [33]: 72.4%; residual activity [34]: 104%; residual activity [35]: 95.7%; residual activity [36]: 63.5%; residual activity [37]: 104%; residual activity [38]: 102%; residual activity [39]: 99.2%
O=C1NC(=O)C(c2cn(CCCn3ccnc3)c3ccccc23)=C1Nc1ccccc1 | 92.3 | 98.8 | 96.3 | 90.9 | 83.1 | 14.7 | 102 | 111 | 59.6 | 90.7 | 87 | 90.2 | 43.6 | 34.5 | 30.6 | 111 | 103 | 102 | 101 | 93.5 | residual activity [40]: 95.4%; residual activity [8]: 87.6%; residual activity [22]: 70.6%; residual activity [23]: 113%; residual activity [24]: 97.8%; residual activity [25]: 105%; residual activity [26]: 79.1%; residual activity [27]: 117%; residual activity [28]: 94.3%; residual activity [29]: 88.8% and 89.3%; residual activity [30]: 3.85%; residual activity [31]: 82.4%; residual activity [32]: 96.2%; residual activity [33]: 11.5%; residual activity [34]: 63.1%; residual activity [35]: 99.2%; residual activity [36]: 76.5%; residual activity [37]: 92.3%; residual activity [38]: 97.9%; residual activity [39]: 100%
O=C1Nc2ccc(Cl)cc2/C1=C/c1cc(Cl)c(O)c(Cl)c1 | 93.9 | 106 | 52.5 | 85.4 | 97 | 95.5 | 92.6 | 93.1 | 94.2 | 88.4 | 94.7 | 35 | 11 | 86.8 | 102 | 99.2 | 88.2 | 100 | 83.6 | 94.8 | residual activity [40]: 9.19%; residual activity [8]: 33.3%; residual activity [22]: 72.5%; residual activity [23]: 78.7%; residual activity [24]: 88.7%; residual activity [25]: 97%; residual activity [26]: 19.4%; residual activity [27]: 99.2%; residual activity [28]: 95.5%; residual activity [29]: 102% and 96.8%; residual activity [30]: 96%; residual activity [31]: 89.2%; residual activity [32]: 95.2%; residual activity [33]: 77.1%; residual activity [34]: 94%; residual activity [35]: 97%; residual activity [36]: 50.6%; residual activity [37]: 93%; residual activity [38]: 94.4%; residual activity [39]: 90.7%
CNc1cc2c(Nc3cccc(Br)c3)ncnc2cn1 | 99.6 | 98.6 | 92.6 | 80.2 | 82.2 | 88.3 | 125 | 94.2 | 58.6 | 82.8 | 87.1 | 86.4 | 67 | 90.1 | 94.4 | 115 | 97.3 | 99.6 | 91.6 | 73.9 | residual activity [40]: 76.3%; residual activity [22]: 97.5%; residual activity [23]: 85%; residual activity [24]: 93%; residual activity [25]: 96.6%; residual activity [26]: 66.2%; residual activity [27]: 115%; residual activity [28]: 86.4%; residual activity [29]: 107% and 92.7%; residual activity [30]: 86.6%; residual activity [31]: 96.6%; residual activity [32]: 89.4%; residual activity [33]: 31.8%; residual activity [34]: 102%; residual activity [35]: 94%; residual activity [36]: 94%; residual activity [37]: 87.9%; residual activity [38]: 87.2%; residual activity [39]: 97.4%
CCCC(=O)Oc1ccc2[nH]c(C(=O)c3cc4ccccc4[nH]3)cc2c1 | 105 | 103 | 106 | 88.2 | 92.7 | 94.3 | 94 | 99.3 | 99.8 | 86.3 | 91.4 | 82.4 | 101 | 87.7 | 97.7 | 87.7 | 87.9 | 92.4 | 96.4 | 103 | residual activity [40]: 97.1%; residual activity [22]: 94%; residual activity [23]: 73.4%; residual activity [24]: 87.4%; residual activity [25]: 94.5%; residual activity [26]: 100%; residual activity [27]: 99.8%; residual activity [28]: 91.7%; residual activity [29]: 104% and 95.1%; residual activity [30]: 97.5%; residual activity [31]: 99.4%; residual activity [32]: 89.4%; residual activity [33]: 94.3%; residual activity [34]: 94.5%; residual activity [35]: 117%; residual activity [36]: 86.7%; residual activity [37]: 100%; residual activity [38]: 78%; residual activity [39]: 101%
